Assay results reported in PMC5845353, “The selective cathepsin K inhibitor MIV-711 attenuates joint pathology in experimental animal models of osteoarthritis” (Journal of Translational Medicine, 2018).
Marks after values point to notes of the source that are not given here.

Test system: rabbits subjected to anterior cruciate ligament transection (ACLT)
Assay: Rabbit ACLT study, µCT of trabecular bone
Format: in vivo
Text: The animals were acquired following review and approval by the Institutional Animal Care and Use Committee (IACUC) at Numira (Salt Lake City, UT). The protocol was also reviewed and approved by the IACUC at Ibex Preclinical Research Inc. (Logan, UT). Male, New Zealand White rabbits (n = 32) were purchased from the Western Oregon Rabbit Co. (Philomath, OR). The animals were approximately 9 months old, weighed 3.7–4.5 kg at the start of the experiment and were randomized into four treatment groups based on body weight.
Pre-operative butorphanol (0.5–1.0 mg/kg, i.m.) for analgesia and glycopyrrolate (~ 0.1 mg/kg i.m.) were administered up to 15 min prior to induction. Anesthesia was induced by a mixture of ketamine (20–40 mg/kg, i.m.) and xylazine (5–10 mg/kg, i.m.), followed by placement of an endotracheal tube. General anesthesia was maintained with isoflurane. Perioperative cefazolin (40 mg/kg, i.v.) was administered, and […] (0.2 mg/kg, i.v.) was administered to reverse the effects of xylazine after endotracheal intubation was complete. A fentanyl patch (25 µg/h) was placed on a clipped area of the skin to provide post-operative analgesia. An incision of 1.5–2.5 cm was made in the skin over the medial side of the right knee under aseptic conditions. The patella was dislocated laterally and the knee placed in full flexion. The anterior cruciate ligament (ACL) was visualized and transected with an appropriate blade. In sham animals, the ACL was visualized but not transected. The joint was irrigated with sterile saline and closed. The muscle and skin were closed with suture and/or surgical glue. Butorphanol (0.5–1 mg/kg, i.m.) was administered after extubation to provide supplemental analgesia. The animals were then individually housed in stainless steel or plastic cages.
Starting 1 week after sham operation or ACLT, animals were dosed daily for 7 weeks by oral gavage with either MIV-711 (synthesized by Medivir and given as a suspension in 1% Methocel A4C in water) or vehicle (1% Methocel A4C in water) at a dose volume of 4 mL/kg. The four treatment groups (n = 7 in each group) were: (1) sham + vehicle; (2) ACLT + vehicle; (3) ACLT + MIV-711, 30 µmol/kg (low dose) and (4) ACLT + MIV-711, 100 µmol/kg (high dose).
Femora and tibias from all animals were subjected to µCT scanning without and with contrast reagent, to visualize bone and cartilage, respectively. Samples were scanned on a high-resolution, volumetric µCT scanner (μCT40, ScanCo Medical, Zurich, CH). The image data was acquired with the following parameters: 36 μm isotropic voxel resolution at 300 ms exposure time, 2000 views and 1 frame per view. Each sample was scanned twice, once for acquiring bone data and once for soft tissue data. After the bone scans, the knees were stained using hexabrix for contrast-enhanced imaging of the cartilage. The µCT-generated DICOM files were used to analyze the samples and to create volume renderings of the regions of interest (ROI). The raw data files were converted into a file format compatible with the segmentation software VHLab (Numira). VHLab was used for segmenting out the regions of interest (osteophyte, cartilage, and subchondral bone) for the femur and tibia of each sample. A region spanning 9 mm of the articulating surface of the femur and 6.5 mm of the tibia was selected for segmenting out the cartilage and subchondral bone in the anterior–posterior direction. After the segmentation process, the voxel count associated with each of the regions of interest was calculated using VHLab. The voxel count was then multiplied by the cubic voxel resolution to obtain volume measurements for the different ROI. Cartilage thickness was calculated using SCIRun (Scientific Computing and Imaging Institute, University of Utah). The distance from the bone to the outer surface of the articulating cartilage was calculated. An image was generated that translates the distances into a color map for viewing the thickness along the length of the cartilage. […]

[1] = Femur Lateral, high dose 100 µmol/kg
[2] = Femur Lateral, low dose 30 µmol/kg
[3] = Femur Medial, high dose 100 µmol/kg
[4] = Femur Medial, low dose 30 µmol/kg
[5] = Tibia Lateral, high dose 100 µmol/kg
[6] = Tibia Lateral, low dose 30 µmol/kg
[7] = Tibia Medial, high dose 100 µmol/kg
[8] = Tibia Medial, low dose 30 µmol/kg

C#C[C@@H]1CN(C(=O)[C@H](CC(C)C)NC(=O)c2ccc(-c3nc(N4CCN(C)CC4)sc3F)cc2)[C@@H]2C(=O)CO[C@H]12 [MIV-711]
Bone surface [1]: 101.7 ± 2.9 mm^2 | Bone surface/volume [1]: 18.7 ± 0.8 1/mm | Connective density [1]: 11.90 ± 1.51 1/mm^3 | Structure model index [1]: 0.63 ± 0.11 | Tissue mineral density [1]: 673.6 ± 7.0 mgHA/ccm | Trabecular bone volume [1]: 5.5 ± 0.2 mm^3 | Trabecular number [1]: 2.55 ± 0.10 1/mm | Trabecular separation [1]: 0.40 ± 0.02 mm | Trabecular thickness [1]: 0.19 ± 0.01 mm | Bone surface [2]: 101.2 ± 4.3 mm^2 | Bone surface/volume [2]: 19.9 ± 1.3 1/mm | Connective density [2]: 13.51 ± 1.54 1/mm^3 | Structure model index [2]: 0.73 ± 0.15 | Tissue mineral density [2]: 669.6 ± 8.4 mgHA/ccm | Trabecular bone volume [2]: 5.3 ± 0.5 mm^3 | Trabecular number [2]: 2.58 ± 0.16 1/mm | Trabecular separation [2]: 0.40 ± 0.03 mm | Trabecular thickness [2]: 0.18 ± 0.01 mm | Bone surface [3]: 105.2 ± 1.3 mm^2 | Bone surface/volume [3]: 15.1 ± 1.0 1/mm | Connective density [3]: 9.14 ± 0.63 1/mm^3 | Structure model index [3]: 0.40 ± 0.07 | Tissue mineral density [3]: 699.1 ± 10.3 mgHA/ccm | Trabecular bone volume [3]: 7.2 ± 0.5 mm^3 | Trabecular number [3]: 3.71 ± 0.68 1/mm | Trabecular separation [3]: 0.30 ± 0.03 mm | Trabecular thickness [3]: 0.22 ± 0.02 mm | Bone surface [4]: 105.6 ± 3.8 mm^2 | Bone surface/volume [4]: 16.0 ± 1.6 1/mm | Connective density [4]: 11.42 ± 1.61 1/mm^3 | Structure model index [4]: 0.48 ± 0.07 | Tissue mineral density [4]: 698.4 ± 15.7 mgHA/ccm | Trabecular bone volume [4]: 7.0 ± 0.7 mm^3 | Trabecular number [4]: 3.02 ± 0.20 1/mm | Trabecular separation [4]: 0.34 ± 0.02 mm | Trabecular thickness [4]: 0.22 ± 0.03 mm | Bone surface [5]: 152.7 ± 4.1 mm^2 | Bone surface/volume [5]: 14.9 ± 0.5 1/mm | Connective density [5]: 16.25 ± 2.01 1/mm^3 | Structure model index [5]: 0.42 ± 0.11 | Tissue mineral density [5]: 707.0 ± 6.6 mgHA/ccm | Trabecular bone volume [5]: 10.3 ± 0.4* mm^3 | Trabecular number [5]: 3.01 ± 0.16 1/mm | Trabecular separation [5]: 0.34 ± 0.02 mm | Trabecular thickness [5]: 0.22 ± 0.01 mm | Bone surface [6]: 153.6 ± 4.1 mm^2 | Bone surface/volume [6]: 16.0 ± 1.2 1/mm | Connective density [6]: 16.55 ± 1.95 1/mm^3 | Structure model index [6]: 0.51 ± 0.12 | Tissue mineral density [6]: 700.8 ± 10.6 mgHA/ccm | Trabecular bone volume [6]: 9.9 ± 0.7 mm^3 | Trabecular number [6]: 2.96 ± 0.15 1/mm | Trabecular separation [6]: 0.34 ± 0.02 mm | Trabecular thickness [6]: 0.21 ± 0.01 mm | Bone surface [7]: 124.9 ± 4.6 mm^2 | Bone surface/volume [7]: 13.2 ± 0.2 1/mm | Connective density [7]: 8.47 ± 0.69 1/mm^3 | Structure model index [7]: 0.41 ± 0.10 | Tissue mineral density [7]: 726.9 ± 5.5 mgHA/ccm | Trabecular bone volume [7]: 9.5 ± 0.5 mm^3 | Trabecular number [7]: 2.09 ± 0.15 1/mm | Trabecular separation [7]: 0.50 ± 0.04 mm | Trabecular thickness [7]: 0.26 ± 0.00 mm | Bone surface [8]: 124.9 ± 3.3 mm^2 | Bone surface/volume [8]: 14.6 ± 1.2 1/mm | Connective density [8]: 9.20 ± 1.08 1/mm^3 | Structure model index [8]: 0.52 ± 0.16 | Tissue mineral density [8]: 714.1 ± 13.1 mgHA/ccm | Trabecular bone volume [8]: 8.9 ± 0.7 mm^3 | Trabecular number [8]: 2.05 ± 0.08 1/mm | Trabecular separation [8]: 0.49 ± 0.02 mm | Trabecular thickness [8]: 0.25 ± 0.02 mm | trabecular bone volume, lateral tibia, difference vs. sham (low dose 30 µmol/kg): -8%
